Results as given in ChEMBL document CHEMBL3880423, “Benzamide derivatives as histone deacetylase inhibitors with potent differentiation and anti-proliferation activity” (2009).
Calls of active or inactive are those of the source.

How the values were obtained:
Type in all cases: cell-based
[1] = molecular target: Estrogen receptor beta (Homo sapiens) (UniProt Q92731); assay: Activation of ERbeta (unknown origin) expressed in human U2OS cells at 0.2 uM incubated for 24 hrs by luciferase reporter gene assay
[2] = molecular target: T1, Estrogen receptor (Homo sapiens) (UniProt P03372); assay: Activation of ERalpha (unknown origin) expressed in human U2OS cells at 0.2 uM in presence of 0.01 uM E2 incubated for 24 hrs by luciferase reporter gene assay
T1 sequence (whole entry): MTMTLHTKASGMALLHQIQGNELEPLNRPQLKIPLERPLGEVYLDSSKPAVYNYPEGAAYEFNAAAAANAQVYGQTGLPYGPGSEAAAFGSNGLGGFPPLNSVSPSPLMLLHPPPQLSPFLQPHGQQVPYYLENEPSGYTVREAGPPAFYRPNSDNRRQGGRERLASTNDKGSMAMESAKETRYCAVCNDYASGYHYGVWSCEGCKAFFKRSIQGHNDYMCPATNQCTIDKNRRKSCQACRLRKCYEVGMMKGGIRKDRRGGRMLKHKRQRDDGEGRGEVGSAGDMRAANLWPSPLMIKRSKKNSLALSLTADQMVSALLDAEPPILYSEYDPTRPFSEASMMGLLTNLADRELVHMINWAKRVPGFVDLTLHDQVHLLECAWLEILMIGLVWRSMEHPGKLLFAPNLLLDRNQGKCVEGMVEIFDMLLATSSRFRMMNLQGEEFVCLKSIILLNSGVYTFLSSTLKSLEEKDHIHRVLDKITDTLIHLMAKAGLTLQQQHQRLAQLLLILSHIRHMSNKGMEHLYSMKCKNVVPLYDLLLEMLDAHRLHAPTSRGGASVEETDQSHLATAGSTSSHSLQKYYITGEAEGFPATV

[3] = molecular target: T1, Estrogen receptor (Homo sapiens); assay: Activation of ERalpha (unknown origin) expressed in human U2OS cells at 0.2 uM incubated for 24 hrs by luciferase reporter gene assay
[4] = molecular target: Estrogen receptor beta (Homo sapiens) (UniProt Q92731); assay: Activation of ERbeta (unknown origin) expressed in human U2OS cells at 0.2 uM in presence of 0.01 uM E2 incubated for 24 hrs by luciferase reporter gene assay
[5] = molecular target: T2, Glucocorticoid receptor (Homo sapiens) (UniProt P04150); assay: Activation of glulcocorticoid receptor (unknown origin) expressed in human U2OS cells at 0.2 uM in presence of 0.1 uM dexamethasone incubated for 24 hrs by luciferase reporter gene assay
T2 sequence (whole entry): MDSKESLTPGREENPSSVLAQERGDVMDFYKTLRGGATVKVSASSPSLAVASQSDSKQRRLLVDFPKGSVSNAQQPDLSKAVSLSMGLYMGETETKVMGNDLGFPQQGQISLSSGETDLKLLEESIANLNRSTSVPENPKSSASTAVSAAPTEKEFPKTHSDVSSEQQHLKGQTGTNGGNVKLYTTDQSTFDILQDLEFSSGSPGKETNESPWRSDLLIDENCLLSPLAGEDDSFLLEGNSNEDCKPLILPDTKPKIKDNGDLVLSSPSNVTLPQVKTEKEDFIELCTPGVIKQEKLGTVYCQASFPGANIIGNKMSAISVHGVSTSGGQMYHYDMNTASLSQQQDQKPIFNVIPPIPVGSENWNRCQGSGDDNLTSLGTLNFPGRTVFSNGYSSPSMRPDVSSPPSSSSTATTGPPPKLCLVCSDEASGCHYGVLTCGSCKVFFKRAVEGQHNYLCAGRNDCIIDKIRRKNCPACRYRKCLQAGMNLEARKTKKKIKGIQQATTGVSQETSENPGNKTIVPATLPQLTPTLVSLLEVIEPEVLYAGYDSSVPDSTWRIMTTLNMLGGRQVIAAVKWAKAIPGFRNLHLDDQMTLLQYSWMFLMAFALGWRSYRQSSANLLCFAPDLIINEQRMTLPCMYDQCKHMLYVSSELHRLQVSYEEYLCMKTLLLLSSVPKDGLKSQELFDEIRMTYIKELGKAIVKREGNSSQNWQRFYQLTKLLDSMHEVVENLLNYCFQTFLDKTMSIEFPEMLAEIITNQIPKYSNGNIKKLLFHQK

[6] = molecular target: T3, Peroxisome proliferator-activated receptor gamma (Homo sapiens) (UniProt P37231); assay: Activation of PPARG (unknown origin) expressed in human U2OS cells at 0.2 uM in presence of 10 uM rosiglitazone incubated for 24 hrs by luciferase reporter gene assay
T3 sequence (whole entry): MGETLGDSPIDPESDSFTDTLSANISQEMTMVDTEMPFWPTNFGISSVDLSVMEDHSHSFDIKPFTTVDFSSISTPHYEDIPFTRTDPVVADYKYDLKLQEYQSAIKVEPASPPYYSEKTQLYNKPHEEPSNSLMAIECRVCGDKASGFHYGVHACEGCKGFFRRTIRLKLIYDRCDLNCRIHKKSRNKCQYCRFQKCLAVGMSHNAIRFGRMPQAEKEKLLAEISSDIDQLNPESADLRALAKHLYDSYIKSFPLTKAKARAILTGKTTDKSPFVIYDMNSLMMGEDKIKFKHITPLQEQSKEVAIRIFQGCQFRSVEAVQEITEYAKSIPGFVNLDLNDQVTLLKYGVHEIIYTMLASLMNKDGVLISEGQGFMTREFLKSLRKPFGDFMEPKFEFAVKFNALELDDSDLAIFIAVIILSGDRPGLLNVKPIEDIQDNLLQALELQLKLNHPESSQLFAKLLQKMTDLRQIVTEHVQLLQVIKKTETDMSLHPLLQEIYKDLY

[7] = molecular target: T2, Glucocorticoid receptor (Homo sapiens); assay: Activation of glulcocorticoid receptor (unknown origin) expressed in human U2OS cells at 0.2 uM incubated for 24 hrs by luciferase reporter gene assay
[8] = molecular target: T3, Peroxisome proliferator-activated receptor gamma (Homo sapiens); assay: Activation of PPARG (unknown origin) expressed in human U2OS cells at 0.2 uM incubated for 24 hrs by luciferase reporter gene assay
[9] = molecular target: T1, Estrogen receptor (Homo sapiens); assay: Activation of ERalpha (unknown origin) expressed in human U2OS cells at 1 uM incubated for 24 hrs by luciferase reporter gene assay
[10] = molecular target: T3, Peroxisome proliferator-activated receptor gamma (Homo sapiens); assay: Activation of PPARG (unknown origin) expressed in human U2OS cells at 1 uM in presence of 10 uM rosiglitazone incubated for 24 hrs by luciferase reporter gene assay
[11] = molecular target: Estrogen receptor beta (Homo sapiens) (UniProt Q92731); assay: Activation of ERbeta (unknown origin) expressed in human U2OS cells at 1 uM incubated for 24 hrs by luciferase reporter gene assay
[12] = molecular target: T2, Glucocorticoid receptor (Homo sapiens); assay: Activation of glulcocorticoid receptor (unknown origin) expressed in human U2OS cells at 1 uM incubated for 24 hrs by luciferase reporter gene assay
[13] = molecular target: T3, Peroxisome proliferator-activated receptor gamma (Homo sapiens); assay: Activation of PPARG (unknown origin) expressed in human U2OS cells at 1 uM incubated for 24 hrs by luciferase reporter gene assay
[14] = molecular target: T1, Estrogen receptor (Homo sapiens); assay: Activation of ERalpha (unknown origin) expressed in human U2OS cells at 1 uM in presence of 0.01 uM E2 incubated for 24 hrs by luciferase reporter gene assay
[15] = molecular target: T2, Glucocorticoid receptor (Homo sapiens); assay: Activation of glulcocorticoid receptor (unknown origin) expressed in human U2OS cells at 1 uM in presence of 0.1 uM dexamethasone incubated for 24 hrs by luciferase reporter gene assay
[16] = molecular target: Estrogen receptor beta (Homo sapiens) (UniProt Q92731); assay: Activation of ERbeta (unknown origin) expressed in human U2OS cells at 1 uM in presence of 0.01 uM E2 incubated for 24 hrs by luciferase reporter gene assay

Measured: Activity

Sequence of Estrogen receptor beta (Homo sapiens) (Q92731 whole entry): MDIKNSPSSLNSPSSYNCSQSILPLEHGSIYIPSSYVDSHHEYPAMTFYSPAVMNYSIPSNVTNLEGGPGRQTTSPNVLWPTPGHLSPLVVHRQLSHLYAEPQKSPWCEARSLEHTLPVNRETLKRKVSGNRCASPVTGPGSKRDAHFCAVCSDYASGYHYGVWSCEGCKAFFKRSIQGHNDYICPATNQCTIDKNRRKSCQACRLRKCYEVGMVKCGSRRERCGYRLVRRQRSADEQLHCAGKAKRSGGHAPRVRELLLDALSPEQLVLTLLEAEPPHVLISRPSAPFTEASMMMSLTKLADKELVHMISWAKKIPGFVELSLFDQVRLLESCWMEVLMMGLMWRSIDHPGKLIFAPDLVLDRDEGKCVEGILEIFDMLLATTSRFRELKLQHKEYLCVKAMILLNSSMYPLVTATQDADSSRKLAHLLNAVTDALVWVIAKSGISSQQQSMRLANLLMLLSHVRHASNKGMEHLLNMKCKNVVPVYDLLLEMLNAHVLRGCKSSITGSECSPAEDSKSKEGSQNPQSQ

CC(/C=C/C(=O)NO)=C\[C@@H](C)C(=O)c1ccc(N(C)C)cc1
active: [1] | [2] | [3] | [4] | [5] | [6] | [7] | [8]

Nc1ccccc1NC(=O)c1ccc(CNC(=O)OCc2cccnc2)cc1
active: [9] | [10] | [11] | [12] | [13] | [14] | [15] | [16]

Nc1cc(F)ccc1NC(=O)c1ccc(CNC(=O)/C=C/c2cccnc2)cc1
active: [9] | [10] | [11] | [12] | [13] | [14] | [15] | [16]
